These results are taken from patent US20230026696A1, “TRPV4 RECEPTOR LIGANDS” (UNIVERSITY OF UTAH RESEARCH FOUNDATION, priority 2019, published 2023).

Each structure is given as a SMILES string.

The target in one experiment is T1, human TRPV4 (Homo sapiens, UniProt Q9HBA0).
T1 construct: expressed in transfected cells
As to the kind of experiment: Fluorometric cell-based Ca2+ flux assay, HEK-293 cells stably overexpressing human TRPV4. To be noted: for IC50: HEK-293 stably overexpressing human TRPV4, agonist GSK1016790A 30 nM. The method, boiled down: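 HEK-293 cells stably overexpressing human TRPV4, Fluo 4-loaded, pre-incubated 30 min at 37° C with compound, then stimulated with 30 nM GSK1016790A (final). Max ΔF/s over 1 min, media-corrected, expressed relative to no-antagonist control; IC50 from ≥8 concentrations, ≥3 replicates.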
On the technique in general: A change in cytosolic calcium serves as a functional read-out for many receptors and channels.

Another experiment deals with T2, TRPM8 (Homo sapiens, UniProt Q7Z2W7).
T2 construct: expressed in transfected cells
T2 sequence (Q7Z2W7 whole entry): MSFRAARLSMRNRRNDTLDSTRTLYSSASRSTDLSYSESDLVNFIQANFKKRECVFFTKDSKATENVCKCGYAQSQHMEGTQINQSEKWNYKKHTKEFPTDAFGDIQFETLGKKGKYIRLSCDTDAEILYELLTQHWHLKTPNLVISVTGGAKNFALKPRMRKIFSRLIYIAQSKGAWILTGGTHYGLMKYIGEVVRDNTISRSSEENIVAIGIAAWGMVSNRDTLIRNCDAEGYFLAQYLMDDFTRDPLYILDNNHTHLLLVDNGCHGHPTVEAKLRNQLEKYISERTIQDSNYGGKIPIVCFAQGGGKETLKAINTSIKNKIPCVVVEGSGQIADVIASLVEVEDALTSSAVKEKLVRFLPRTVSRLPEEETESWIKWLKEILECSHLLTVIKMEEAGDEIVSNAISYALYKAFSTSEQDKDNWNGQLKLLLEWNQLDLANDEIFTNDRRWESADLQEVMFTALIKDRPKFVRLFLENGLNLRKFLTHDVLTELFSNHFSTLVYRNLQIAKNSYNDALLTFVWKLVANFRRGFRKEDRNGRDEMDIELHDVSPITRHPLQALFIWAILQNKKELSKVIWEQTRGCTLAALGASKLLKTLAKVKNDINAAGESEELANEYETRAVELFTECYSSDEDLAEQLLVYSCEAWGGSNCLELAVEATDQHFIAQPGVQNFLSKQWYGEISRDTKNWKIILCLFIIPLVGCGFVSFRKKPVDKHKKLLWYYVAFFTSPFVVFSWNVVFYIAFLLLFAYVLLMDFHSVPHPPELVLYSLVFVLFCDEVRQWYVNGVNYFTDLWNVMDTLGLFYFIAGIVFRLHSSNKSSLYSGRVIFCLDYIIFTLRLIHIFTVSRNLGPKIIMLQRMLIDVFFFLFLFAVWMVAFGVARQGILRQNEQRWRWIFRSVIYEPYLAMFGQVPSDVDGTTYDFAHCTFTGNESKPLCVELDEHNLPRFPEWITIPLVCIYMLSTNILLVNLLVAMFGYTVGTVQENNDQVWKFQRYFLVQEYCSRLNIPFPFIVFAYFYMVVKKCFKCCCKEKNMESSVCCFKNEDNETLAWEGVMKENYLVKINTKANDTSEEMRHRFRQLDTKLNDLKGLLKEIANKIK
As to the kind of experiment: Selectivity Ca2+ flux assay, TRPM8 stably over-expressed in HEK-293 cells. To be noted: agonist icilin (50 μM). It is filed as cell-based. On the procedure: (§1) To determine selectivity of the various test compounds for TRPV4, select compounds with activity in the TRPV4 fluorometric cell-based Ca^2+ flux assays were also tested for inhibition of human TRPA1 stably over-expressed in HEK-293 cells, TRPM8 stably over-expressed in HEK-293 cells, TRPV3 stably over-expressed in HEK-293 cells, and TRPV1 stably overexpressed in human lung epithelial (BEAS-2B) cells. The assays were conducted substantially as described above for HEK-293 cells that stably overexpress TRPV4, although for TRPV1, the BEAS-2B cells were maintained in LHC-9 media containing Geneticin (300 μg/mL) and were loaded with Fluo-4AM at room temperature. The agonist for TRPA1 was 2,4-ditert butylphenol (50 μM), for TRPM8 was icilin (50 μM), for TRPV3 was carvacrol (300 μM), and for TRPV1 was nonivamide (5 μM). All other aspects of the assay described above were the same.

In another experiment the target is T3, TRPV3 (Homo sapiens, UniProt Q8NET8).
T3 construct: expressed in transfected cells
T3 sequence (Q8NET8 1-790): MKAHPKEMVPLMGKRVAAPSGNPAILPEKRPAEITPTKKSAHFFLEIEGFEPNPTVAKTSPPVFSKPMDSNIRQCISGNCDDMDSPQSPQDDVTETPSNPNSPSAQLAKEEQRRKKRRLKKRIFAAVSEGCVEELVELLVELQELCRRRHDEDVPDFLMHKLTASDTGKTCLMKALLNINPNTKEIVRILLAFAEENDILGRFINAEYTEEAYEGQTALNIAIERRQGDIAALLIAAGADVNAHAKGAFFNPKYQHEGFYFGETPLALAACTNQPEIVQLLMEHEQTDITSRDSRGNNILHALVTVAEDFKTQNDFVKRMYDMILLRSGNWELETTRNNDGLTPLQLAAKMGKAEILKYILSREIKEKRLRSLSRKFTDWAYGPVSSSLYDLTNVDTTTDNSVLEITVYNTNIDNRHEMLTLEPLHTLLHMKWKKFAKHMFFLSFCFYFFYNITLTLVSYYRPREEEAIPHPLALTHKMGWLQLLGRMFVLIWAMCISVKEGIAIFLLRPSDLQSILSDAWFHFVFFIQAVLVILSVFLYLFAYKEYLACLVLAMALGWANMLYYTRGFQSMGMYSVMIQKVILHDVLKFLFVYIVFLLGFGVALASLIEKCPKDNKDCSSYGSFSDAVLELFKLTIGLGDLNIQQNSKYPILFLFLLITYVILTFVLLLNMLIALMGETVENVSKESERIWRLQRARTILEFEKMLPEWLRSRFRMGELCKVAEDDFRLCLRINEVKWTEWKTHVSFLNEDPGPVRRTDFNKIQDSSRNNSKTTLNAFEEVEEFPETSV
As to the kind of experiment: Selectivity Ca2+ flux assay, TRPV3 stably over-expressed in HEK-293 cells. It is filed as cell-based. To be noted: agonist carvacrol (300 μM). Here is the method: as §1

The next experiment addresses T4, TRPV1 (Homo sapiens, UniProt Q8NER1).
T4 construct: expressed in transfected cells
As to the kind of experiment: Selectivity Ca2+ flux assay, TRPV1 stably overexpressed in human lung epithelial (BEAS-2B) cells. The format is cell-based. To be noted: agonist nonivamide (5 μM). On the procedure: as §1

Experiment [1] concerns intraocular pressure (IOP). As to the kind of experiment: In vivo tonometric IOP assay in microbead mouse model of ocular hypertension. To be noted: for IOP after single topical application: 1 μM and 10 μM, comparable to 0.5% timolol; for IOP after topical administration / protection of RGCs: mouse model of ocular hypertension, compounds 1 μM and 10 μM, timolol 0.5%; for IOP after topical administration: FIG. 1; for protection of RGCs: topical.

T1 sequence (Q9HBA0 whole entry): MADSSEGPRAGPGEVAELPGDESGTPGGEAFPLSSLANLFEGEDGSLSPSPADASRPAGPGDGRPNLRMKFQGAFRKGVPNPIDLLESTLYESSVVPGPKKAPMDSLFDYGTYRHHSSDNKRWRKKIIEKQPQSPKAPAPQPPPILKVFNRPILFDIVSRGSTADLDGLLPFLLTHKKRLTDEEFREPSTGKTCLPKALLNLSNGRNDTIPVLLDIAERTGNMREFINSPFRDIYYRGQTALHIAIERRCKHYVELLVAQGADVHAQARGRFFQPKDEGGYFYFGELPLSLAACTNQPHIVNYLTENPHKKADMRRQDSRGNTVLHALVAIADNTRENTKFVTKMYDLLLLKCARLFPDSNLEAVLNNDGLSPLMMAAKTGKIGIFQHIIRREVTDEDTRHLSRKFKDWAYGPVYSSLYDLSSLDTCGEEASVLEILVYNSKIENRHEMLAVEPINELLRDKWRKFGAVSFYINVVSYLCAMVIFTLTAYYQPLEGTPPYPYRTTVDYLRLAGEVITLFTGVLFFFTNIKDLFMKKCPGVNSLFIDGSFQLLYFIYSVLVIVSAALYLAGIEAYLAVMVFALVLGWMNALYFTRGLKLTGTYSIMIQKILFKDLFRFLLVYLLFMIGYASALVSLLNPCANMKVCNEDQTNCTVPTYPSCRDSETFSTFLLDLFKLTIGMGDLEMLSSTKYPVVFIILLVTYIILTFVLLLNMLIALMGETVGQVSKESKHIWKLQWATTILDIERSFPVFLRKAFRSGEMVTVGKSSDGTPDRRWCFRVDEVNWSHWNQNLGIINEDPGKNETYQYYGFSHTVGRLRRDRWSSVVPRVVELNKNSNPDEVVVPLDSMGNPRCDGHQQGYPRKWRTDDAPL
T4 sequence (Q8NER1 whole entry): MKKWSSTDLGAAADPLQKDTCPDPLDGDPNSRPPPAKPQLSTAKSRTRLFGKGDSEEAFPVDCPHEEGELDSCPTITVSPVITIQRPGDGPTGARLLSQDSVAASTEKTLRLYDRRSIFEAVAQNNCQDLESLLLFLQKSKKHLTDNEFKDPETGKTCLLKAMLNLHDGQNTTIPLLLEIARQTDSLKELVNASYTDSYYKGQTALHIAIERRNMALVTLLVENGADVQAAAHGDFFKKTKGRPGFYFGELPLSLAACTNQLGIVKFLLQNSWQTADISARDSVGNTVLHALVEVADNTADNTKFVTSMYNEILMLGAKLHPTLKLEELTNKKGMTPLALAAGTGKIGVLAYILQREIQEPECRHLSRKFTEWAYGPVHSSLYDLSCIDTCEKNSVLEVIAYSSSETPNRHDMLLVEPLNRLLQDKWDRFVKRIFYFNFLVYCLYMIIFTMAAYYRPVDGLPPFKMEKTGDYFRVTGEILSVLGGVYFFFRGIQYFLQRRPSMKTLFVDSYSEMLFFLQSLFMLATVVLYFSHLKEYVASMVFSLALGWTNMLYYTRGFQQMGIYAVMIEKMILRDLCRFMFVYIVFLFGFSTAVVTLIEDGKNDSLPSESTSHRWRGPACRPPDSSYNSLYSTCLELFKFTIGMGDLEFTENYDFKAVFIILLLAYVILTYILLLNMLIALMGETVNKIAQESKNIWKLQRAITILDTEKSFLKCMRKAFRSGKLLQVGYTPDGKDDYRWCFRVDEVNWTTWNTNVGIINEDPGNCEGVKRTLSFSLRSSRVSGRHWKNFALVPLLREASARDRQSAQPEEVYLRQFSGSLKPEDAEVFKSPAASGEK

Usually IC50 stands for the concentration that gives 50% inhibition. A high value points to lower potency. Regarding `N#Cc1ccc(OCC2(CO)CN(S(=O)(=O)c3ccc(Cl)cc3Cl)C2)cc1F` [Compound 11, 4-((1-((2,4-Dichlorophenyl)sulfonyl)-3-(hydroxymethyl)azetidin-3-yl)methoxy)-2-fluorobenzonitrile], the IC50 at human TRPV4 is 52 to 61 nM; at TRPM8, 14.4 µM; at TRPV3, more than 100 µM; on TRPV1, 24.3 µM. For the same molecule, the “selectivity for TRPV4 versus TRPA1, TRPM8, TRPV3 and TRPV1” value on human TRPV4 (comparison of IC50 values) is “substantially more selective for TRPV4”. The “IOP after single topical application” value in experiment [1] is on record as “effectively lower IOP”. In experiment [1], the “IOP after topical administration” value is “lowered the IOP”. The “protection of RGCs” value in experiment [1] was “protected RGCs”.
As to `Cl.N#Cc1ccc(OCC2(N)CN(S(=O)(=O)c3ccc(Cl)cc3Cl)C2)cc1F` [Compound 52, 4-((3-Amino-1-((2,4-dichlorophenyl)sulfonyl)azetidin-3-yl)methoxy)-2-fluorobenzonitrile hydrochloride salt], the IC50 is 24 to 66 nM on human TRPV4, 35.9 µM at TRPM8, more than 100 µM on TRPV3 and 60 µM at TRPV1. In addition, the “IOP after single topical application” value in experiment [1] is given as “effectively lower IOP”. Moreover, the “IOP after topical administration” value in experiment [1] is “lowered the IOP”. Moreover, the “protection of RGCs” value in experiment [1] is reported as “protected RGCs”.
